According to patent publication US8293781B2, “Indole derivatives having cPLA2 inhibiting activity and applications and production methods of the same” (Daiichi Sankyo Company, Limited, priority 2007, dated 2012):
pIC50: −log10 of the molar value. Where a name gives a salt, the structure may show the parent alone.

What was measured:
[1] = tested on: LTB4 production in rat mast cell like cell line RBL-2H3; assay: Calcium ionophore-induced LTB4 production system using RBL-2H3; assay type: cell-based; settings: 1 h, RBL-2H3, A23187 5 μM, one hour
Method: For the evaluation by LTB4 and Cys-LTs production inhibiting activity, the calcium ionophore-induced LTB4 and Cys-LTs production system using the rat mast cell like cell line RBL-2H3 with reference to the method of Ishiwara et al. (see Ishiwara M. et al., J Pharmacol Exp Ther 307: 583, 2003) was used. That is, rat mast cell like cell line RBL-2H3 cells were suspended in Dulbecco's modified Eagle's medium (Nacalai Tesque) containing 10% bovine fetal serum (BioWhittaker) and 10 μg/ml gentamycin (Invitrogen). The infiltrating cell suspension 200 μl containing 1×10^5 cells per well was inoculated to 96-well culture plate and cultured over night under conditions of 5% CO2 and 37° C. The culture supernatant was removed, then the test compound solution or solvent 50 μl was added. After 30 minutes preculture, calcium ionophore (A23187) was added to a final concentration of 5 μM to induce leukotriene production.
One hour after calcium ionophore stimulus, the culture supernatant was recovered and the amounts of LTB4 and Cys-LTs in the supernatant were measured using an EIA kit (made by Amersham). Based on the measurement values, the test compound concentrations suppressing 50% of the mediator production at the time of non-addition of a compound (IC50 value) were calculated.

[2] = biological target: T1, cPLA2 crudely purified from the cytoplasm fraction of U937 (Homo sapiens, UniProt P47712); assay: Measurement of cPLA2 inhibitory activity (release of [14C]-arachidonic acid from phosphatidyl choline liposome); assay type: biochemical; settings: cPLA2 from U937 cytoplasm fraction, [14C]arachidonyl-phosphatidyl choline liposome, 37° C., 60 minutes; read-out: cPLA2 inhibitory activity, 50% inhibiting concentration IC50
T1 construct: cPLA2 crudely purified from the cytoplasm fraction of U937; endogenous in cells; host or cells: U937 cells (cytoplasm fraction, crude purification)
T1 sequence (P47712 1-749): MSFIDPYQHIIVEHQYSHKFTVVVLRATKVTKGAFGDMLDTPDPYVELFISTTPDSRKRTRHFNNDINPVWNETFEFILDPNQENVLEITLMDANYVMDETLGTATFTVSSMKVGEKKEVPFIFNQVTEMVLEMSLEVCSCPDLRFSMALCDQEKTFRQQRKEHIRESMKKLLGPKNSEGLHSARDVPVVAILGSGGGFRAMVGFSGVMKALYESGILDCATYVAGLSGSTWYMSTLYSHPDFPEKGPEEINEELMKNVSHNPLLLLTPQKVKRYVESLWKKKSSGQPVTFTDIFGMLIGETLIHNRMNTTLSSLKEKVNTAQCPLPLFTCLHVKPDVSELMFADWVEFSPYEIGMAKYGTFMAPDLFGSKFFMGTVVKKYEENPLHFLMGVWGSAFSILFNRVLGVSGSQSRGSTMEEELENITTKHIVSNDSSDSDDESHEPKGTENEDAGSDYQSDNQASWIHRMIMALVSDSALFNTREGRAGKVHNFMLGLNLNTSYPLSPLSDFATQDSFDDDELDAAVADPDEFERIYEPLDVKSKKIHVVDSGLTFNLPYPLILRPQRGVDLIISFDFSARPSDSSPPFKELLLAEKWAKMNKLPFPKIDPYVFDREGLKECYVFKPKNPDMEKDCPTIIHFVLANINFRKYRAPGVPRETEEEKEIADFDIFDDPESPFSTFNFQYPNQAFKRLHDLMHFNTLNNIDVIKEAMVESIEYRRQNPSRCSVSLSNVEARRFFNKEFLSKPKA
In short: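 The read-out is radioactivity from extracted [14C]-arachidonic acid, freed over 60 min at 37° C from liposomes of 14C-arachidonyl phosphatidylcholine (10 μM PC in the added solution). Buffer was 50 mM HEPES pH 7.5 with Ca2+, DTT, NaCl and BSA. IC50 was derived from inhibition relative to enzyme control minus no-enzyme control.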

[3] = tested on: TXB2 production in whole blood; assay: Calcium ionophore-induced TXB2 production system using whole blood; assay type: cell-based; settings: Cavia porcellus, 0.25 h; Hartley guinea pig heparin blood diluted 2-fold, A23187 5 μM, 15 minutes
Method: For evaluation of the TXB2 production inhibiting activity, the calcium ionophore-induced TXB2 production system using whole blood with reference to the method of Alanko (see Alanko J., Prostaglandins 45: 193, 1993) was used. That is, heparin blood taken from Hartley guinea pigs was diluted 2-fold by an RPMI1640 medium (Nakalai Tesque) containing 10 μg/ml gentamycin (Invitrogen). The entire blood after dilution was inoculated in a 96-well culture plate in amounts of 200 μl per well, then the test compound solution or solvent was added. After 30 minutes preculture, calcium ionophore (A23187) was added to a final concentration of 5 μM to induce TXB2 production. 15 minutes after stimulus, the supernatant was recovered by centrifugal separation and the amount of TXB2 in the supernatant was measured using an EIA kit (Amersham).
Based on the measurement value, the test compound concentration suppressing 50% of the TXB2 production at the time of non-addition of a compound (IC50 value) was calculated.

| pIC50 [1] | pIC50 [2] | pIC50 [3] | SMILES |
| --- | --- | --- | --- |
| 6.11 | 7.96 | 5.82 | O=C(O)CCc1ccc2c(c1)c(CCc1ccccc1)cn2-c1ccc(O)cc1 [Example 126, 3-[1-(4-hydroxyphenyl)-3-(2-phenylethyl)-1H-indol-5-yl]propanoic acid] |
| 6.59 | 7.24 | 5.29 | O=C(O)CCc1ccc2c(c1)c(CCc1ccccc1)cn2-c1ccc(F)cc1 [Example 187, 3-[1-(4-fluorophenyl)-3-(2-phenylethyl)-1H-indol-5-yl]propanoic acid] |
| 6.42 | 7.55 | 5.86 | O=C(O)CCc1ccc2c(c1)c(CCc1ccccc1)cn2-c1ccc(OC(F)F)cc1 [Example 190, 3-{1-[4-(difluoromethoxy)phenyl]-3-(2-phenylethyl)-1H-indol-5-yl}propanoic acid 2-amino-2-(hydroxymethyl)propane-1,3-diol salt (1:1)] |
| 6.30 | 7.33 | 5.69 | COCc1ccc(-n2cc(CCc3ccccc3)c3cc(CCC(=O)O)ccc32)cc1 [Example 217, 3-{1-[4-(methoxymethyl)phenyl]-3-(2-phenylethyl)-1H-indol-5-yl}propanoic acid 2-amino-2-(hydroxymethyl)propane-1,3-diol salt (1:1)] |
| 7.70 | 7.85 | 6.24 | O=C(O)CCc1ccc2c(c1)c(CCc1ccccc1)cn2-c1ccc(OCCO)cc1 [Example 229, 3-{1-[4-(2-hydroxyethoxy)phenyl]-3-(2-phenylethyl)-1H-indol-5-yl}propanoic acid 2-amino-2-(hydroxymethyl)propane-1,3-diol salt (1:1)] |

| SMILES | pIC50 [1] | pIC50 [2] | pIC50 [3] |
| --- | --- | --- | --- |
| O=C(O)CCc1ccc2c(c1)c(CCc1ccccc1)cn2-c1ccc(Oc2ccccc2)cc1 [Example 231, 3-[1-(4-phenoxyphenyl)-3-(2-phenylethyl)-1H-indol-5-yl]propanoic acid 2-amino-2-(hydroxymethyl)propane-1,3-diol salt (1:1)] | 6.74 | 7.70 | 6.27 |
